System: pendrin in patient nasal epithelial cells
Assay: Patient-derived cell-based (PDC) assay, immunofluorescence staining of pendrin
Set-up: species or system human
Details: 10 μM; for Pendrin expression on epithelial cell membrane, immunofluorescence staining: FIG. 2A; for Mean fluorescence intensity (pendrin expression intensity) vs vehicle and IL-4 groups: FIG. 2B, *p<0.05
Experimental: The experimental approach is grounded in a multi-step process aimed at investigating the effects of drug treatments on nasal epithelial cells. Initially, nasal tissues are collected and processed to isolate epithelial cells through tissue lysis. These cells are then cultured and subjected to Air-Liquid Interface (ALI) conditions for an extended period. Following this, drug treatments involving human IL-4 and Pendrin corrector drugs are administered, and protein harvesting is conducted for subsequent analysis. The expression of the pendrin antibody ‘hR1 (YONSEI ENT Choi lab.)’ is confirmed through Western blot analysis after drug treatments. Additionally, immunofluorescence staining is performed on Transwell membranes from different drug concentrations, and the resulting cryosections are subjected to confocal microscopy using the primary antibody ‘hR2 (YONSEI ENT Choi lab.)’. This comprehensive methodology allows for the visualization and analysis of pendrin expression in both basal and apical regions of nasal epithelial cells, providing insights into the impact of drug treatment on the targeted cellular components.
Nasal tissue were collected from patients and placed in DMEM:F12 (Lonza Cat No. 12-719F) supplemented with 1% penicillin-streptomycin in Transfer media. After removing red blood cells with PBS, tissues were subjected to tissue lysis with 1% protease in transfer media at 37° C. for 1 hour, resulting in the isolation of epithelial cells.
The obtained epithelial cells were conventionally cultured up to passage 1 in BEGM Bulletkit (Lonza Cat No. CC3170) supplemented with BSA 150 mg/ml and EGF (BD Cat No. 354001). Once reaching approximately 90% confluency, cells were detached using 0.25% Trypsin EDTA and seeded onto 12-well Transwell plates (Costar Cat No. 3450) in a 1:1 mixture of DMEM media (Lonza Cat No. 12-707F) and BEGM Bulletkit supplemented media for Air-Liquid Interface (ALI) culture.
ALI culture was initiated by adding 1 ml of media to the bottom and seeding 0.5 ml of cells on the membrane. When cells on the membrane reached 90% confluency, the bottom was filled with culture media supplemented with 50 nM Retinoic acid (RA, SIGMA Cat No. R2625), and ALI culture was performed for 7-14 days.
Subsequent to ALI culture, cells were treated with human IL-4 at […] for 24 hours, followed by treatment with ‘Compound 9, Compound 18 and Compound 105’ Pendrin corrector drugs at concentrations of 0.1, 0.3, 1, 3, 10 μM for 24 hours. After drug treatment, cells attached to the Transwell membrane were harvested by scraping into protein buffer (iNtRON Cat No. 17081). Protein quantification ([…]) was performed for each sample and the expression of the pendrin antibody ‘hR1 (YONSEI ENT custom antibody)’ was confirmed through Western blot analysis.
For immunofluorescence staining, Transwell membranes from each drug-treated concentration were fixed in 4% paraformaldehyde (PFA) at room temperature for 10 minutes. Subsequently, they were cut into three pieces using a microtome, embedded in OCT compound and processed in to 5 μm cryosections. Immunostaining using the primary antibody ‘hR2 (YONSEI ENT custom antibody)’ was conducted, and the pendrin expression in the basal and apical regions of epithelial cells was visualized using confocal microscopy (Carl Zeiss, LSM700).

| SMILES | Pendrin expression on epithelial cell membrane, immunofluorescence staining | Mean fluorescence intensity (pendrin expression intensity) vs vehicle and IL-4 groups |
| --- | --- | --- |
| NC1=C(c2cncc(-c3ccc(O)c(O)c3)n2)C(=O)CN1c1ccccc1Cl [Compound 9] | clear red fluorescence | significant difference |
| NC1=C(c2cncc(-c3ccc(O)c(O)c3)n2)C(=O)CN1CC1CCCC1 [Compound 18] | clear red fluorescence | significant difference |
| COc1cc(-c2nccc(C3=C(N)N(CC4CCCC4)CC3=O)n2)ccc1O [Compound 105] | clear red fluorescence | significant difference |
